The values below are quoted from earlier work in PubChem BioAssay AID1259410 (Chemical Carcinogenesis Research Information System (CCRIS), 2018).

For this data set, the system named is rodent tumor promotion studies, tumor incidence. Put plainly: CCRIS tumor promotion studies. An excerpt:
The CCRIS database contains chemical records with carcinogenicity, mutagenicity, tumor promotion, and tumor inhibition test results. It was developed by the National Cancer Institute (NCI). Data are derived from studies cited in primary journals, current awareness tools, NCI reports, and other sources. Test results have been reviewed by experts in carcinogenesis and mutagenesis.
CCRIS provides historical information from the years 1985 - 2011. It is no longer updated.
This is an archive assay for CCRIS tumor promotion studies.

For the compound `C[C@]12CC[C@H](O)CC1=CC[C@@H]1[C@@H]2CC[C@]2(C)C(=O)CC[C@@H]12`, the outcome is “liver: tumor” (Carcinogen: N-METHYL-N'-NITRO-N-NITROSOGUANIDINE, 70-25-7, Doses [Carcinogen]: 35 PPM IN WATER FOR 30 MIN ONCE, Doses [Promoter]: 0, 111, 222, 444, 888 PPM IN DIET FOR 6 MO BEGINNING 3 MO POST CARCINOGEN TREATMENT (STUDY DURATION: 9 MO), Doses [Promoter]: 0, 111, 222, 444, 888 PPM IN DIET FOR 6 MO BEGINNING 3 MO POST CARCINOGEN TREATMENT (STUDY DURATION: 9 MO), Route [Carcinogen]: IMMERSION, Route [Promoter]: ORAL, Species: FISH, Strain/Sex: RAINBOW TROUT/MALE,FEMALE); “kidney: tumor” (Carcinogen: N-METHYL-N'-NITRO-N-NITROSOGUANIDINE, 70-25-7, Doses [Carcinogen]: 35 PPM IN WATER FOR 30 MIN ONCE, Doses [Promoter]: 0, 111, 888 PPM IN DIET FOR 6 MO BEGINNING 3 MO POST CARCINOGEN TREATMENT (STUDY DURATION: 9 MO), Doses [Promoter]: 0, 111, 888 PPM IN DIET FOR 6 MO BEGINNING 3 MO POST CARCINOGEN TREATMENT (STUDY DURATION: 9 MO), Route [Carcinogen]: IMMERSION, Route [Promoter]: ORAL, Species: FISH, Strain/Sex: RAINBOW TROUT/MALE,FEMALE); “liver: hepatocellular carcinoma” (Carcinogen: N-NITROSOMORPHOLINE, 59-89-2, Doses [Carcinogen]: 120 MG/L IN DRINKING WATER FOR 7 WK, Doses [Promoter]: 0, 0.6% IN THE DIET FOR DURATION OF STUDY BEGINNING 1 WK POST CARCINOGEN TREATMENT (STUDY DURATION: 84 WK), Route [Carcinogen]: ORAL, Route [Promoter]: ORAL, Species: RAT, Strain/Sex: SPRAGUE-DAWLEY/FEMALE); “liver: hepatocellular adenoma” (Carcinogen: N-NITROSOMORPHOLINE, 59-89-2, Doses [Carcinogen]: 120 MG/L IN DRINKING WATER FOR 7 WK, Doses [Promoter]: 0, 0.6% IN THE DIET FOR DURATION OF STUDY BEGINNING 1 WK POST CARCINOGEN TREATMENT (STUDY DURATION: 84 WK), Route [Carcinogen]: ORAL, Route [Promoter]: ORAL, Species: RAT, Strain/Sex: SPRAGUE-DAWLEY/MALE); “liver: tumor” (Doses [Carcinogen]: 10 PPB IN WATER FOR 30 MIN, Doses [Promoter]: 0, 444 PPM IN DIET FOR 6 MO BEGINNING 3 MO POST CARCINOGEN TREATMENT (STUDY DURATION: 9 MO), Route [Carcinogen]: IMMERSION, Route [Promoter]: ORAL, Species: FISH, Strain/Sex: RAINBOW TROUT/MALE, FEMALE); “liver: tumor” (Doses [Carcinogen]: 10 PPB IN WATER, Doses [Promoter]: 0, 222, 444, 888 PPM IN DIET 1/D 5 D/WK FOR 30 WK BEGINNING 16 WK POST CARCINOGEN TREATMENT (STUDY DURATION: 46 WK), Doses [Promoter]: 0, 222, 444, 888 PPM IN DIET 1/D 5 D/WK FOR 30 WK BEGINNING 16 WK POST CARCINOGEN TREATMENT (STUDY DURATION: 46 WK), Route [Carcinogen]: IMMERSION, Route [Promoter]: ORAL, Species: FISH, Strain/Sex: RAINBOW TROUT/MALE, FEMALE).

Consider `OCl`, for which the outcome (Carcinogen: 4-NITROQUINOLINE-1-OXIDE, Doses [Carcinogen]: TOP, Route [Carcinogen]: DERMAL, Route [Promoter]: DERMAL, Species: MOUSE, Strain/Sex: FEMALE) is recorded as “integumentary system (skin)”.

As to `CC1=C2C(=CO[C@H](C)[C@H]2C)C(=O)C(C(=O)O)=C1O`, the outcome is, setting by setting: (Carcinogen: OCHRATOXIN A, 303-47-9, Doses [Carcinogen]: 0.25 ML OF A 50 PPM SOLUTION 2/WK FOR 20 WK, Doses [Promoter]: 0, 0.25 ML OF 50 PPM SOLUTION 2/WK FOR 20 WK ADMINISTERED SIMULTANEOUSLY WITH CARCINOGEN TREATMENT (STUDY DURATION: 20 W, Route [Carcinogen]: GAVAGE, Route [Promoter]: GAVAGE, Species: MOUSE, Strain/Sex: ALBINO/MALE,FEMALE) “kidney: tumor”; (Carcinogen: OCHRATOXIN A, 303-47-9, Doses [Carcinogen]: 0.25 ML OF A 50 PPM SOLUTION 2/WK FOR 20 WK, Doses [Promoter]: 0, 0.25 ML OF A 50 PPM SOLUTION ADMINISTERED SIMULTANEOUSLY WITH CARCINOGEN DOSE 2/WK FOR 20 WK (STUDY DURATION: 20 WK), Route [Carcinogen]: GAVAGE, Route [Promoter]: GAVAGE, Species: MOUSE, Strain/Sex: SWISS/MALE,FEMALE) “kidney: tumor”.

For `O=C1NC(=O)C(c2ccccc2)(c2ccccc2)N1`, the outcome was “liver: hepatocellular adenoma” (Carcinogen: N,N-DIETHYLNITROSAMINE, 55-18-5, Doses [Carcinogen]: 75 MG/KG IN SALINE ONCE AT 5 WK OF AGE, Doses [Promoter]: 0, 500, 1500 PPM IN DIET FOR 45 WK BEGINNING 2 WK POST CARCINOGEN TREATMENT (STUDY DURATION: 47 WK), Doses [Promoter]: 0, 500, 1500 PPM IN DIET FOR 45 WK BEGINNING 2 WK POST CARCINOGEN TREATMENT (STUDY DURATION: 47 WK), Route [Carcinogen]: INTRAPERITONEAL, Route [Promoter]: ORAL, Species: RAT, Strain/Sex: F344/MALE); “liver: hepatocellular adenoma” (Carcinogen: N,N-DIETHYLNITROSAMINE, 55-18-5, Doses [Carcinogen]: 75 MG/KG IN SALINE ONCE AT 5 WK OF AGE, Doses [Promoter]: 0, 500, 1500 PPM IN DIET FOR 46-72 WK BEGINNING 2 WK POST CARCINOGEN TREATMENT (STUDY DURATION: 46-72 WK), Doses [Promoter]: 0, 500, 1500 PPM IN DIET FOR 46-72 WK BEGINNING 2 WK POST CARCINOGEN TREATMENT (STUDY DURATION: 46-72 WK), Route [Carcinogen]: INTRAPERITONEAL, Route [Promoter]: ORAL, Species: RAT, Strain/Sex: F344/MALE); “liver: tumor” (Carcinogen: N-NITROSODIETHYLAMINE, 55-18-5, Doses [Carcinogen]: 90 MG/KG BW IN TRICAPRYLIN ONCE, Doses [Promoter]: 0, 500 PPM IN DIET FOR 53 WK BEGINNING 2 WK POST CARCINOGEN DOSE (STUDY DURATION: 55 WK), Route [Carcinogen]: INTRAPERITONEAL, Route [Promoter]: ORAL, Species: MOUSE, Strain/Sex: D2B6F1/MALE).

As to `CC(=O)OCC(CO)OC(C)=O` (stereo not given), the outcome reads like this: (Carcinogen: 4-Nitroquinoline 1-oxide, 56-57-5, Doses [Carcinogen]: 10 ppm in drinking water from wks 0-10, study duration 35 wk, Doses [Promoter]: 0, 2.75%, 5.5%, 11% in diet from wks 11-35, study duration 35 wks, Doses [Promoter]: 0, 2.75%, 5.5%, 11% in diet from wks 11-35, study duration 35 wks, Route [Carcinogen]: Oral, Route [Promoter]: Oral, Species: Rat, Strain/Sex: Sprague-Dawley/Male (30/Group)) “tongue: squamous cell papillomas and carcinomas; oral cavity: squamous cell papi”; (Carcinogen: 7,12-Dimethylbenz(a)anthracene, 57-97-6, Doses [Carcinogen]: 100 ug in 100 ul acetone once at 6 wk of age, Doses [Promoter]: 0, 12, 30, 75 mg, 5 d/wk beginning 1 wk after carcinogen administration for 35 wk, study duration 36 wk, Route [Carcinogen]: Dermal, Route [Promoter]: Dermal, Species: Mouse, Strain/Sex: ICR/Female) “skin: papillomas”; (Carcinogen: 7,12-Dimethylbenz(a)anthracene, 57-97-6, Doses [Carcinogen]: 100 ug in 100 ul acetone once at 6 wk of age, Doses [Promoter]: 0, 30, 75 mg, twice daily, 5 d/wk beginning 1 wk after carcinogen administration for 35 wk, study duration 36 wk, Route [Carcinogen]: Dermal, Route [Promoter]: Dermal, Species: Mouse, Strain/Sex: ICR/Female) “skin: papillomas and squamous cell carcinomas”.

Turning to `O=[N+]([O-])c1ccc2ccc3cccc4ccc1c2c34`, for the setting “Carcinogen: POLYCHLORINATED BIPHENYLS, 1336-36-3, Doses [Carcinogen]: 2.5 MG/KG ONCE, Doses [Promoter]: 0, 1575 MG/KG IN DMSO ADMINISTERED IN 17 DOSES 3/WK BEGINNING POST CARCINOGEN TREATMENT (STUDY DURATION: 18 WK), Route [Carcinogen]: INTRAPERITONEAL, Route [Promoter]: INTRAPERITONEAL, Species: MOUSE, Strain/Sex: A/J/MALE”, the outcome is “lung: adenoma and adenocarcinoma”.

In the case of `CCCCCCCCCCC(C)C1(CCC(=O)OC2C(C)C3(O)C(C=C(CO)CC4(O)C(=O)C(C)=CC43)C3C(C)(C)C23OC(C)=O)OCC(C)(C)N1[O]` (stereo not given), under “Carcinogen: 7,12-DIMETHYLBENZ[A]ANTHRACENE, 57-97-6, Doses [Carcinogen]: 100 NMOL ONCE, Doses [Promoter]: 0, 20 NMOL 2/WK FOR 24 WK BEGINNING 1 WK POST CARCINOGEN DOSE (STUDY DURATION: 25 WK), Route [Carcinogen]: DERMAL, Route [Promoter]: DERMAL, Species: MOUSE, Strain/Sex: NMRI/FEMALE”, the outcome is reported as “skin: tumor”.

With `CCCCCCCCCC(=O)O[C@@H]1[C@@H](C)[C@@]2(O)[C@@H](C=C(CO)C[C@]3(O)C(=O)C(C)=C[C@@H]23)[C@@H]2C(C)(C)[C@]12OC(=O)CCCCCCCCC`, the outcome (Carcinogen: 7,12-DIMETHYLBENZ(A)ANTHRACENE, Doses [Carcinogen]: TOP, Route [Carcinogen]: DERMAL, Route [Promoter]: DERMAL, Species: MOUSE, Strain/Sex: MALE,FEMALE) is on record as “forestomach”.

Take `c1ccc2c(c1)cc1ccc3cccc4ccc2c1c34`: the outcome (Carcinogen: BENZO[A]PYRENE [50-32-8], Doses [Carcinogen]: 8 MMOL/MOUSE 3X/WK FOR 25 WKS (STUDY DURATION: 30 WKS), Doses [Promoter]: UVA 40 KJ/M2 FOR 25 WKS 2 HR AFTER CARCINOGEN TREATMENT (STUDY DURATION: 30 WKS), Route [Carcinogen]: DERMAL, Route [Promoter]: IRRADIATION TO SKIN, Species: MOUSE, Strain/Sex: SKH-1/FEMALE (20/GROUP)) was “skin: tumor incidence and multiplicity increased”.

With `Clc1cc(Cl)c(-c2ccc(Cl)c(Cl)c2Cl)cc1Cl`, the outcome (Carcinogen: N-NITROSODIMETHYLAMINE, 62-75-9, Doses [Carcinogen]: 5 MG/KG IN SALINE ON POSTNATAL DAY 4, Doses [Promoter]: 0, 20 MG/KG IN OLIVE OIL ON POSTNATAL DAY 8 (STUDY DURATION: 16 WK), Route [Carcinogen]: INTRAPERITONEAL, Route [Promoter]: GAVAGE, Species: MOUSE, Strain/Sex: SWISS/MALE, FEMALE) is given as “lung: tumor”.
